Results reported in patent US20030224978A1, “Compounds and methods for modulating apoptosis” (McGill University, priority 1996, published 2003).
“Also recorded” adds a separate entry of the source. Positions of bridges follow the written chain, without caps; N, C: chain ends. Residues, ends and D or L forms follow the SMILES beside them.

Columns and labels:
in vitro [1] = assay type: cell-based; details: human
Protocol: (§1) N-Ac-CHAVC-NH2 (SEQ ID NO:10) and the control peptide N-Ac-CHGVC-NH2 (SEQ ID NO:20) were evaluated for possible cytotoxic effects on human microvascular endothelial (HMVEC; Clonetics), human umbilical vein endothelial (HUVEC; ATCC #CRL-1730), IAFp2 (human fibroblast cell line; Institute Armand-Frapier, Montreal, Quebec), WI-38 (human fibroblast cell line; ATCC #CCL-75), MDA-MB231 (human breast cancer cell line; ATCC #HTB-26), and PC-3 (human prostate cancer cell line; ATCC #CRL-1435) cells utilizing the MTT assay (Plumb et al., Cancer Res. 49:4435-4440, 1989). Neither of the peptides was cytotoxic at concentrations up to and including 100 μM. Similarly, neither of the peptides was capable of inhibiting the proliferation of the above cell lines at concentrations up to 100 μM, as judged by ^3H-thymidine incorporation assays.

in vitro [2] = assay type: cell-based; details: human; remark: listed apart in the source
Protocol: as §1

chick N-cadherin = target: T1, chick N-cadherin (Gallus gallus, UniProt P10288); assay: N-cadherin dependent neurite outgrowth of rat cerebellar neurons on N-cadherin expressing 3T3 cells (Example 14); assay type: cell-based; details: for inhibition at 250 µg/mL: 250 μg/mL; for inhibition at 250 µg/mL / inhibition at 125 µg/mL: 16-18 hours; for inhibition at 125 µg/mL: 125 μg/mL; for inhibitory activity on N-cadherin dependent neurite outgrowth, in words: Tables 8 and 9, 250 or 125 μg/mL
T1 construct: expressed in transfected cells; host or cells: 3T3 fibroblasts
T1 sequence (P10288 165-912): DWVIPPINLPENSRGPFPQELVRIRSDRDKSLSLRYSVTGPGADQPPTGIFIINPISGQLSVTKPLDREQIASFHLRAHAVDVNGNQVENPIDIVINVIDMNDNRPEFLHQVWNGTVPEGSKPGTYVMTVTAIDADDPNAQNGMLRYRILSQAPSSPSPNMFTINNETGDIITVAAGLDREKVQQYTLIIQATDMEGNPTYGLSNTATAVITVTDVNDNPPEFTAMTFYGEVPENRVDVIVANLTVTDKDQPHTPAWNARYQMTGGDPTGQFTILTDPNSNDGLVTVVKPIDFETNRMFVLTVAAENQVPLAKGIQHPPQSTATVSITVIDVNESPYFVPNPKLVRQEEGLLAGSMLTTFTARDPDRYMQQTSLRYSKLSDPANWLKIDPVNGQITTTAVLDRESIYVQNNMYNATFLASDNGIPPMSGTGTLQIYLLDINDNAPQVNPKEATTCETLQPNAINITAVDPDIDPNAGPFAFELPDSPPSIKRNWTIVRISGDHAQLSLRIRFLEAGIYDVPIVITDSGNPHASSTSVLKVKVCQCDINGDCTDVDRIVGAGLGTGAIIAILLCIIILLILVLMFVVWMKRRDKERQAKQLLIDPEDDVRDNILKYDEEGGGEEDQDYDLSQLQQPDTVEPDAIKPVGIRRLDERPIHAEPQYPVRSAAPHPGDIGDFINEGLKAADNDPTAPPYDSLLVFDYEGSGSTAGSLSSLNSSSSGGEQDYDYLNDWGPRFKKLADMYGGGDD
Protocol: (§2) Cell culture and neurite outgrowth assays. Co-cultures of cerebellar neurons on monolayers of control 3T3 cells and monolayers of transfected 3T3 cells that express physiological levels of chick N-cadherin or human L1 were established as previously described (Williams et al., Neuron 13:583-594, 1994). In brief, 80,000 3T3 cells (control and transfected) were plated into individual chambers of an eight-chamber tissue culture slide coated with polylysine and fibronectin and cultured in DMEM/10% FCS. After 24 hours, when confluent monolayers had formed, the medium was removed and 3000 cerebellar neurons isolated from post-natal day 2-3 rats were plated into each well in SATO media (Doherty et al., Nature 343:464-466, 1990) supplemented with 2% FCS. All of the test peptides were added immediately before the neurons as a 2×stock prepared in SATO/2% FCS. The co-cultures were maintained for 16-18 hours, at which time they were fixed and immunostained for GAP-43 which is present only in the neurons and delineates the neuritic processes. The mean length of the longest neurite per cell was measured for 150-200 neurons sampled in replicate cultures as previously described (Williams et al., Neuron 13:583-594, 1994). […] Dose-response curves were evaluated and the EC50 values determined.
Effects of cyclic HAV peptides on N-cadherin function. The ability of N-Ac-CHAVC-NH2 (SEQ ID NO:10; compound 1) to inhibit neurite outgrowth was initially tested. This cyclic peptide has the cadherin CAR sequence (HAV) and no flanking amino acid residues. Neurons were cultured on confluent monolayers of control (untransfected) and N-cadherin expressing 3T3 cells for 16-18 hours. The cells were then fixed and the length of the longest neurite on 150-200 neurons was determined by standard assay, as described above. FIG. 24 gives the mean neurite length in a representative experiment where cerebellar neurons have been cultured over control and N-cadherin expressing cells. In the absence of peptide, the mean length of the longest neurite per cell was approximately double on the N-cadherin expressing cells, as compared to 3T3 cells. This response requires N-cadherin function in both the neuron and transfected fibroblast.

[3] = test system: bovine pulmonary artery endothelial cells; assay: Disruption of bovine endothelial cell adhesion; assay type: cell-based; details: 500 μg/ml, 30 minutes
Protocol: For use within one such assay, bovine pulmonary artery endothelial cells may be harvested by sterile ablation and digestion in 0.1% collagenase (type II; Worthington Enzymes, Freehold, N.J.). Cells may be maintained in Dulbecco's minimum essential medium supplemented with 10% fetal calf serum and 1% antibiotic-antimycotic at 37° C. in 7% CO2 in air. Cultures may be passaged weekly in trypsin-EDTA and seeded onto tissue culture plastic at 20,000 cells/cm^2. Endothelial cultures may be used at 1 week in culture, which is approximately 3 days after culture confluency is established. The cells may be seeded onto coverslips and treated (e.g., for 30 minutes) with modulating agent or a control compound at, for example, 500 μg/ml and then fixed with 1% paraformaldehyde. As noted above, disruption of cell adhesion may be determined visually within 24 hours, by observing retraction of the cells from one another. This assay evaluates the effect of a modulating agent on N-cadherin mediated cell adhesion.
Bovine pulmonary artery endothelial cells were harvested by sterile ablation and digestion in 0.1% collagenase (type II; Worthington Enzymes, Freehold, N.J.). Cells were maintained in Dulbecco's […] essential medium (Clonetics, San Diego, Calif.) supplemented with 10% fetal calf serum (Atlantic Biologicals, Nor cross, Ga.) and 1% antibiotic-antimycotic at 37° C. in 7% CO2 in air. Cultures were passaged weekly in trypsin-EDTA (Gibco, Grand Island, N.Y.) and seeded onto tissue culture plastic at 20,000 cells/cm^2 for all experiments. Endothelial cultures were used at 1 week in culture, which is approximately 3 days after culture confluency was established. The cells used in all protocols were between 4th passage and 10th passage. The cells were seeded onto coverslips and treated 30 minutes with N-Ac-CHAVC-NH2 (SEQ ID NO:10) or N-Ac-CHGVC-NH2 (SEQ ID NO:20) at 500 μg/ml and then fixed with 1% paraformaldehyde.

in vitro [4] = assay type: cell-based; details: human; remark: listed apart in the source
Protocol: as §1

in vitro [5] = assay type: cell-based; details: human; remark: listed apart in the source
Protocol: as §1

L1 = L1 (Homo sapiens, UniProt P32004); assay: L1 response: neurite outgrowth of rat cerebellar neurons on L1 expressing 3T3 cells (Example 14); assay type: cell-based; parameters: expressed in transfected cells; host or cells: 3T3 cells (stably transfected); details: 100 μg/mL, concentrations that substantially inhibited the N-cadherin response
L1, sequence (P32004 20-1257): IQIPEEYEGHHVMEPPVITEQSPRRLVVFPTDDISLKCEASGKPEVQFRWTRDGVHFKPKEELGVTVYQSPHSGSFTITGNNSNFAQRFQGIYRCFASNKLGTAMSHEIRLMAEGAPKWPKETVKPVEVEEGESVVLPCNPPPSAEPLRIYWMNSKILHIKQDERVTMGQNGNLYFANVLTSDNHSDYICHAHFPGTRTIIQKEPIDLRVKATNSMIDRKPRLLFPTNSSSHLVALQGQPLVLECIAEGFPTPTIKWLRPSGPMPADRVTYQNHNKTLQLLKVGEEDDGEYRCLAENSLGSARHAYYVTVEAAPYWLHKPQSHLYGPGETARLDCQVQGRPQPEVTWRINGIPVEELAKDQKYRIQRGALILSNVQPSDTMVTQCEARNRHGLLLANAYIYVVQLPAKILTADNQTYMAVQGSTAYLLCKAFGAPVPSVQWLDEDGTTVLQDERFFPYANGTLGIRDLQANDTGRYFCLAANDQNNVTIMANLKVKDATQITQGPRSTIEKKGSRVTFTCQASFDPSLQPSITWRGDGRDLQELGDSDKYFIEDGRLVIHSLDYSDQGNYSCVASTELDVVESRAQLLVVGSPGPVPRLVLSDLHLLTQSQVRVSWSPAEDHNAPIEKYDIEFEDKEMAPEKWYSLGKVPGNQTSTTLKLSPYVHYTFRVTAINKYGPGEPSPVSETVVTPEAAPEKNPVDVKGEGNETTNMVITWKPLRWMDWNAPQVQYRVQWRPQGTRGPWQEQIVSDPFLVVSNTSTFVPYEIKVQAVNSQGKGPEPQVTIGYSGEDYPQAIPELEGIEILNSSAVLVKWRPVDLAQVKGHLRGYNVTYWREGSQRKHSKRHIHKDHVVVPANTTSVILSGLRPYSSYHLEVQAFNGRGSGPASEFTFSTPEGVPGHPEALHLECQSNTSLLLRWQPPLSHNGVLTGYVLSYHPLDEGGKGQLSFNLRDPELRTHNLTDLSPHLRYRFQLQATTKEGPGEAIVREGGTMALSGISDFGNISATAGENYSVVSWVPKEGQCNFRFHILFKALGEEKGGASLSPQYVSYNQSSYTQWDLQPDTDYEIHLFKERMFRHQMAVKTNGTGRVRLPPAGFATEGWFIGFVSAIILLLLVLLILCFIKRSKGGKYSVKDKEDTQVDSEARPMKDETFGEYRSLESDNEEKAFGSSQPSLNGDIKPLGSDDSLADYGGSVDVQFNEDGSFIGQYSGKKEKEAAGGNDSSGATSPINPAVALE
Protocol: FIG. 26 is a bar graph illustrating the effects of the cyclic peptides N-Ac-CHAVDC-NH2 (SEQ ID NO:11), N-Ac-CHAVDIC-NH2 (SEQ ID NO:62) and N-Ac-[…]-NH2 (SEQ ID NO:63) on L1 function. Cerebellar neurons were cultured on monolayers of control 3T3 cells and L1 expressing 3T3 cells for 16-18 hours in control media (unshaded) or control media supplemented with peptides N-Ac-CHAVDC-NH2 (SEQ ID NO:11; diagonal rising right), N-Ac-CHAVDIC-NH2 (SEQ ID NO:62); diagonal cross hatch) or N-Ac-[…]-NH2 (SEQ ID NO:63; diagonal rising left) at a concentration of 100 μg/mL. The cultures were then fixed and neurite outgrowth determined by measuring the length of the longest neurite from a total of 150-200 neurons sampled in replicate cultures for each experimental condition. […] The results are pooled from three independent experiments, and the bars show the s.e.m.
as §2, with “The co-cultures were maintained for 16-18 hours, at which time they were fixed and immunostained for GAP-43 which is present only in the neurons and delineates the neuritic processes.” left out, “determined. […]” for “determined.”

[6] = test system: angiogenesis in chick embryonic chorioallantoic membranes; assay: Chick chorioallantoic membrane angiogenesis assay; assay type: in vivo; details: for percent inhibition of angiogenesis: 24 hours
Protocol: The chick chorioallantoic membrane assay was used to assess the effects of cyclic peptides on angiogenesis (Iruela-Arispe et al., Molecular Biology of the Cell 6:327-343, 1995). Cyclic peptides were embedded in a mesh composed of vitrogen at concentrations of 3, 17, and 33 μg/mesh. The meshes were then applied to 12-day-old chick embryonic chorioallantoic membranes. After 24 hours, the effects of the peptides on angiogenesis were assessed by computer assisted morphometric analysis.
For each concentration of cyclic peptide, the percent inhibition of angiogenesis (relative to the level of angiogenesis in the absence of cyclic peptide) is provided. Assays were performed in the presence (+) or absence (−) of […] VEGF. For example, the cyclic peptide N-Ac-CHAVC-NH2 (SEQ ID NO:10) inhibited angiogenesis by 46%, 51%, and 51% at concentrations of 3, 17, and 33 μg/mesh, respectively.

IC50 (in vitro [1]) [µM]	IC50 (in vitro [2]) [µM]	inhibition at 250 µg/mL (chick N-cadherin; NIH3T3) [%]	IC50 (in vitro [4]) [µM]	IC50 (in vitro [5]) [µM]	inhibition at 125 µg/mL (chick N-cadherin; NIH3T3) [%]	EC50 (chick N-cadherin; from dose-response curve) [µM]	reduction in inhibitory activity on flanking HAV with E-cadherin amino acids (chick N-cadherin; Table 8, 250 μg/mL)	inhibition at 33 µg/mL (chick N-cadherin; NIH3T3, 33 μg/mL) [%]	SMILES	effect on endothelial cell monolayer / morphology [3]	inhibitory activity on N-cadherin dependent neurite outgrowth, in words (chick N-cadherin)	effect on L1 response (neurite outgrowth over L1 expressing 3T3 cells) (L1)	percent inhibition of angiogenesis ([6]; 3 μg/mesh, absence (−) of 0.01 mM VEGF) [%]	percent inhibition of angiogenesis ([6]; 3 μg/mesh, presence (+) of 0.01 mM VEGF) [%]	percent inhibition of angiogenesis ([6]; 17 μg/mesh, absence (−) of 0.01 mM VEGF) [%]	percent inhibition of angiogenesis ([6]; 17 μg/mesh, presence (+) of 0.01 mM VEGF) [%]	percent inhibition of angiogenesis ([6]; 33 μg/mesh, absence (−) of 0.01 mM VEGF) [%]	percent inhibition of angiogenesis ([6]; 33 μg/mesh, presence (+) of 0.01 mM VEGF) [%]	inhibition of angiogenesis, in words ([6]; 3, 17, and 33 μg/mesh)
> 100	> 100	4 ± 6.9	> 100	> 100					CC(=O)N[C@H]1CSSC[C@@H](C(N)=O)NC(=O)[C@H](CC(=O)O)NC(=O)[C@H](C(C)C)NC(=O)CNC(=O)[C@H](Cc2c[nH]cn2)NC(=O)[C@H](C)NC1=O [N-Ac-CAHGVDC-NH2, reference compound] (Ac-CAHGVDC-NH2; disulfide 1-7)	inactive									
> 100	> 100	-5.6 ± 5.9	> 100	> 100					CC(=O)N[C@H]1CSSC[C@@H](C(N)=O)NC(=O)[C@H](CO)NC(=O)[C@H](CO)NC(=O)[C@H](C(C)C)NC(=O)CNC(=O)[C@H](Cc2c[nH]cn2)NC(=O)[C@H](CO)NC1=O [reference compound] (Ac-CSHGVSSC-NH2; disulfide 1-8)	inactive									
					88.3 ± 7.5	60			CC[C@H](C)[C@@H]1NC(=O)[C@H](CC(=O)O)NC(=O)[C@H](C(C)C)NC(=O)[C@H](C)NC(=O)[C@H](Cc2c[nH]cn2)NC(=O)[C@@H](NC(C)=O)CSSC[C@@H](C(N)=O)NC1=O [N-Ac-CHAVDIC-NH2] (Ac-CHAVDIC-NH2; disulfide 1-7)		further increased activity; also recorded: potent inhibitors	did not interfere with the ability of neurons to extend neurites over 3T3 cells expressing L1; also recorded: not inhibited							
> 100	> 100	-12.6 ± 6.4	> 100	> 100			complete		CC(=O)N[C@H]1CSSC[C@@H](C(N)=O)NC(=O)[C@H](CO)NC(=O)[C@H](CO)NC(=O)[C@H](C(C)C)NC(=O)[C@H](C)NC(=O)[C@H](Cc2c[nH]cn2)NC(=O)[C@H](CO)NC1=O (Ac-CSHAVSSC-NH2; disulfide 1-8)	disrupted the endothelial cell monolayer; also recorded: retracted from one another and round up			1	−3	−3	12	17	7	relatively inactive
					77.1 ± 8.4			28.5	CC(=O)N[C@H]1CSSC[C@@H](C(N)=O)NC(=O)[C@H](CC(=O)O)NC(=O)[C@H](C(C)C)NC(=O)[C@H](C)NC(=O)[C@H](Cc2c[nH]cn2)NC1=O [N-Ac-CHAVDC-NH2] (Ac-CHAVDC-NH2; disulfide 1-6)		dramatically increased the inhibitory activity; also recorded: potent inhibitors of neurite outgrowth	did not interfere with the ability of neurons to extend neurites over 3T3 cells expressing L1; also recorded: not inhibited							
